Source: ChEMBL document CHEMBL5360524 (Bioorg Med Chem, 2022)

Legend:
[1] = tested on: Serratia marcescens; assay: Antibacterial activity against Serratia marcescens assessed as inhibition of bacterial growth measured after 96 hrs relative to control; format: functional
[2] = tested on: Serratia marcescens; assay: Antibacterial activity against Serratia marcescens assessed as inhibition of bacterial growth measured after 168 hrs relative to control; format: functional

COc1cc(C=O)ccc1O [VANILLIN]
inhibition (INH) [1]: 0.3%
inhibition (INH) [2]: 0.4%
